{"source": "patent US11723920B2", "about": "“Method for treating cancer with a nanoformulation” (Imam Abdulrahman Bin Faisal University, priority 2019, dated 2023)", "tested_on": "human mammary adenocarcinoma cell line, MCF-7", "test": "Cell viability MTT assay on MCF-7 cells", "type": "cell-based", "details": "MCF-7, 48 h", "protocol": "Cells were maintained in DMEM (Dulbecco's Modified Eagle Medium) (Gibco, life technologies) supplemented with 10% heat inactivated fetal bovine serum (HI-FBS) (Gibco, life technology), 1% Penicillin Streptomycin (100×— Gibco, life technology), and 1% MEM NEAA (MEM non-essential amino acids) (100×— Gibco, life technology). Cells were kept in a humidified incubator at 37° C. with 5% CO2. For the experimental setup, MCF-7 cells were seeded on a 96-well plate at a density of 20,000 cells/well. On the next day, cells were shifted to the starve media (0.5% HI-FBS containing media) for 24 h before treatment.\nFor groups B, C, E, and F, treatment concentrations were as follows: 0.025, 0.05, 0.1, and 0.5 mg/mL. […] Therefore, treatment concentrations for group A were as follows: 0.0084, 0.0168, 0.0336, and 0.168 mg/mL. Treatment concentrations used in this experiment for group D were as follows: 0.001125, 0.00225, 0.0045, 0.0225 mg/mL.\nThe viability of cells was tested using 3-(4,5-dimethylthiazol-2-yl)-2,5-diphenyltetrazolium bromide (MTT) assay. It is based on the ability to reduce MTT relative to formazan crystals. […] The change in color intensity was measured at 570 nm wavelength using SYNERGY-neo2 BioTek ELISA reader. […] The reading of each triplicate was averaged and subtracted from the averaged MTT background control reading. […]"}
{"molecule": "N.N.[Cl][Pt][Cl]", "note": "[cisplatin]", "values": [{"measurement": "effect on cell viability (in words)", "value": "significantly reduced cell viability"}]}
